Source: ChEMBL document CHEMBL4613222 (Bioorg Med Chem, 2020)
Activity calls are given as the source filed them. No cut-off for these calls is given here.

Legend:
HCT-116 [1] = assay: Antiproliferative activity against human HCT116 cells assessed as reduction in cell viability after 48 hrs by MTT assay; assay type: functional, cell-based; settings: HCT-116, 48 h
HCT-116 [2] = assay: Down regulation of NFKappaB1 gene expression in human HCT116 cells at 35 uM under 2 Gy irradiation by RT-PCR analysis; assay type: functional, cell-based
HCT-116 [3] = assay: Down regulation of CCND1 gene expression in human HCT116 cells at 9.5 uM in presence of 2 Gy irradiation by RT-PCR analysis; assay type: functional, cell-based
HCT-116 [4] = assay: Down regulation of NFKappaB1 gene expression in human HCT116 cells at 9.5 uM by RT-PCR analysis relative to control; assay type: functional
HCT-116 [5] = assay: Radiosensitizer activity in human HCT116 cells assessed as reduction in cell survival at 4.75 uM incubated for 48 hrs under 2 to 6 Gy irradiation and measured after 7 days by crystal violet staining based by clonogenic assay; assay type: functional
HCT-116 [6] = assay: Effect on CCND1 gene expression in human HCT116 cells at 9.5 uM in presence of 2 Gy irradiation by RT-PCR analysis; assay type: functional, cell-based

IC50 (HCT-116 [1]): 19 µM
Compound: C[C@H]1[C@H](C)CC[C@]2(C(=O)O)CC[C@]3(C)C(=CC[C@@H]4[C@@]5(C)CC[C@H](O)C(C)(C)[C@@H]5CC[C@]43C)[C@H]12 [URSOLIC ACID]
Activity (HCT-116 [2]): Active
Activity (HCT-116 [3]): Active
fold change (FC) (HCT-116 [4]): -7.05
Activity (HCT-116 [5]): Active
Activity (HCT-116 [6]): inactive
